Reference: patent publication US20230167127A1, “COMPOUNDS AND THEIR USE IN THE TREATMENT OF BACTERIAL INFECTION” (Hoffmann-La Roche Inc., priority 2020, published 2023)
Where two headings read alike, the source gives them in different places.

Test system: Escherichia coli ATCC 25922
Test: 50% growth inhibitory concentration (IC50) determination, Iso-Sensitest broth dilution
Format: cell-based
Conditions: strain Escherichia coli ATCC 25922, 10-point broth dilution, optical density at 600 nm over 16 h, read-out: Escherichia coli growth inhibition IC50
Method in brief: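 10-point twofold Iso-Sensitest broth dilution (e.g. 50 to 0.097 μM final) with DMSO stocks, incubated at 35±2° C. Growth followed by OD 600 nm every 20 min over 16 h; IC50 derived from growth inhibition during logarithmic phase.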

[1] = Escherichia coli, ATCC25922, 16 h

SMILES	IC50 [1] [µM]	IC50 [µM]
NC1(COc2cc(F)c3c(c2)CC(CNCCC2CN(c4ccc5c(n4)NC(=O)CO5)C(=O)O2)C3)COC1 (stereo not drawn) [Example 162, 6-[5-[2-[[6-[(3-aminooxetan-3-yl)methoxy]-4-fluoro-2,3-dihydro-1H-inden-2-yl]methylamino]ethyl]-2-oxo-1,3-oxazolidin-3-yl]-4H-pyrido[3,2-b][1,4]oxazin-3-one; formic acid]	0.195	–
N#Cc1cccc2c1CC(CNC1CCC3C(C1)OC(=O)N3c1ccc3c(n1)NC(=O)CO3)C2 (racemic) [Example 31, 2-[[[rac-3a,7a-trans-6,7a-cis-2-oxo-3-(3-oxo-4H-pyrido[3,2-b][1,4]oxazin-6-yl)-3a,4,5,6,7,7a-hexahydro-1,3-benzoxazol-6-yl]amino]methyl]-2,3-dihydro-1H-indene-4-carbonitrile]	–	0.156
N#Cc1cc(OCC2CCN2)cc2c1CC(CNCCC1CN(c3ccc4c(n3)NC(=O)CO4)C(=O)O1)C2 (stereo not drawn) [Example 187, 6-(azetidin-2-ylmethoxy)-2-[[2-[2-oxo-3-(3-oxo-4H-pyrido[3,2-b][1,4]oxazin-6-yl)-1,3-oxazolidin-5-yl]ethylamino]methyl]-2,3-dihydro-1H-indene-4-carbonitrile]	0.121	–
NC1c2cc(OCC3(N)CC3)cc(Cl)c2CC1CNCCC1CN(c2cnc3c(n2)NC(=O)CO3)C(=O)O1 (racemic) [Example 282, 6-[2-Oxo-5-[2-[[rac-1,2-trans-1-amino-6-[(1-aminocyclopropyl)methoxy]-4-chloro-2,3-dihydro-1H-inden-2-yl]methylamino]ethyl]-1,3-oxazolidin-3-yl]-4H-pyrazino[2,3-b][1,4]oxazin-3-one; formic acid]	0.374	–
CCNC(=O)COc1cc(F)c2c(c1)CC(CNCCC1CN(c3cnc4c(n3)NC(=O)CO4)C(=O)O1)C2 (stereo not drawn) [Example 308, N-ethyl-2-[[7-fluoro-2-[[2-[2-oxo-3-(3-oxo-4H-pyrazino[2,3-b][1,4]oxazin-6-yl)-1,3-oxazolidin-5-yl]ethylamino]methyl]-2,3-dihydro-1H-inden-5-yl]oxy]acetamide; formic acid]	0.471	–
NC1c2cccc(F)c2CC1CNCCC1CN(c2ccc3c(n2)NC(=O)CO3)C(=O)O1 (racemic) [Example 163, 6-[5-[2-[(rac-1,2-trans-1-amino-4-fluoro-2,3-dihydro-1H-inden-2-yl)methylamino]ethyl]-2-oxo-1,3-oxazolidin-3-yl]-4H-pyrido[3,2-b][1,4]oxazin-3-one]	0.131	–
N#Cc1cc(OCc2cnc[nH]2)cc2c1CC(CNCCC1CN(c3cnc4c(n3)NC(=O)CO4)C(=O)O1)C2 (stereo not drawn) [Example 406, 6-(1H-imidazol-5-ylmethoxy)-2-[[2-[2-oxo-3-(3-oxo-4H-pyrazino[2,3-b][1,4]oxazin-6-yl)-1,3-oxazolidin-5-yl]ethylamino]methyl]-2,3-dihydro-1H-indene-4-carbonitrile; formic acid]	0.139	–
N#Cc1cccc2c1CC(CNCCC1OC(=O)N(c3ccc4c(n3)NC(=O)CO4)C1CN)C2 (racemic) [Example 148, 2-[[2-[rac-4,5-cis-4-(aminomethyl)-2-oxo-3-(3-oxo-4H-pyrido[3,2-b][1,4]oxazin-6-yl)-1,3-oxazolidin-5-yl]ethylamino]methyl]-2,3-dihydro-1H-indene-4-carbonitrile; formic acid]	0.598	–
N#Cc1nccc2c1CC(CNCCC1CN(c3ccc4c(n3)NC(=O)CO4)C(=O)O1)C2 (stereo not drawn) [Example 90, 6-[[2-[2-oxo-3-(3-oxo-4H-pyrido[3.2-b][1,4]oxazin-6-yl)-1,3-oxazolidin-5-yl]ethylamino]methyl]-6,7-dihydro-5H-cyclopenta[c]pyridine-1-carbonitrile; formic acid]	0.17	–
CS(=O)(=O)NCCOc1cc(F)c2c(c1)CC(CNCCC1CN(c3cnc4c(n3)NC(=O)CO4)C(=O)O1)C2 (stereo not drawn) [Example 324, N-[2-[[7-fluoro-2-[[2-[2-oxo-3-(3-oxo-4H-pyrazino[2,3-b][1,4]oxazin-6-yl)-1,3-oxazolidin-5-yl]ethylamino]methyl]-2,3-dihydro-1H-inden-5-yl]oxy]ethyl]methanesulfonamide]	0.205	–

The next lines start with the values.

IC50 [1] [µM]	IC50 [µM]	SMILES
< 0.0977	–	CC(C)(N)COc1cc(F)c2c(c1F)CC(CN1CCC3(CC1)CN(c1cnc4c(n1)NC(=O)CO4)C(=O)O3)C2 (stereo not drawn) [Example 412, 6-[8-[[5-(2-amino-2-methylpropoxy)-4,7-difluoro-2,3-dihydro-1H-inden-2-yl]methyl]-2-oxo-1-oxa-3,8-diazaspiro[4.5]decan-3-yl]-4H-pyrazino[2,3-b][1,4]oxazin-3-one; formic acid]
< 0.0977	–	CNC(=O)COc1cc(F)c2c(c1)CC(CN1CCC3(CC1)CN(c1cnc4c(n1)NC(=O)CO4)C(=O)O3)C2 (stereo not drawn) [Example 309, 2-[[7-fluoro-2-[[2-oxo-3-(3-oxo-4H-pyrazino[2,3-b][1,4]oxazin-6-yl)-1-oxa-3,8-diazaspiro[4.5]decan-8-yl]methyl]-2,3-dihydro-1H-inden-5-yl]oxy]-N-methylacetamide]
< 0.0977	–	CC(C)(N)COc1cc(F)c2c(c1F)CC(CNCCC1CN(c3cnc4c(n3)NC(=O)CO4)C(=O)O1)C2 (stereo not drawn) [Example 411, 6-[5-[2-[[5-(2-amino-2-methylpropoxy)-4,7-difluoro-2,3-dihydro-1H-inden-2-yl]methylamino]ethyl]-2-oxo-1,3-oxazolidin-3-yl]-4H-pyrazino[2,3-b][1,4]oxazin-3-one; formic acid]
< 0.0977	–	Cc1c(OCC2(N)CC2)ncc2c1CC(CNCCC1CN(c3ccc4c(n3)NC(=O)CO4)C(=O)O1)C2 (stereo not drawn) [Example 217, 6-[5-[2-[[3-[(1-aminocyclopropyl)methoxy]-4-methyl-6,7-dihydro-5H-cyclopenta[c]pyridin-6-yl]methylamino]ethyl]-2-oxo-1,3-oxazolidin-3-yl]-4H-pyrido[3,2-b][1,4]oxazin-3-one]
< 0.0977	–	CCn1cc(C(=O)O)c(=O)c2cc(F)c3c(c21)CC(CNCCC1CN(c2ccc4c(n2)NC(=O)CO4)C(=O)O1)C3 (stereo not drawn) [Example 239, 1-Ethyl-6-fluoro-4-oxo-8-[[2-[2-oxo-3-(3-oxo-4H-pyrido[3,2-b][1,4]oxazin-6-yl)-1,3-oxazolidin-5-yl]ethylamino]methyl]-8,9-dihydro-7H-cyclopenta[h]quinoline-3-carboxylic acid]
< 0.0977	–	NC1c2cccc(Cl)c2CC1CNCCC1CN(c2ccc3c(n2)NC(=O)CO3)C(=O)O1 (single isomer, unassigned; isomer a) [Example 207, 6-[2-Oxo-5-[2-[[1,2-trans-1-amino-4-chloro-2,3-dihydro-1H-inden-2-yl]methylamino]ethyl]-1,3-oxazolidin-3-yl]-4H-pyrido[3,2-b][1,4]oxazin-3-one, Isomer A]
< 0.0977	–	COCC(N)COc1cc(F)c2c(c1)CC(CNCCC1CN(c3ccc4c(n3)NC(=O)CO4)C(=O)O1)C2 (stereo not drawn) [Example 248, 6-[5-[2-[[6-(2-amino-3-methoxypropoxy)-4-fluoro-2,3-dihydro-1H-inden-2-yl]methylamino]ethyl]-2-oxo-1,3-oxazolidin-3-yl]-4H-pyrido[3,2-b][1,4]oxazin-3-one]
< 0.0977	–	COc1cc2c(c(C#N)n1)CC(CNCCC1CN(c3cnc4c(n3)NC(=O)CO4)C(=O)O1)C2 (stereo not drawn) [Example 65, 3-methoxy-6-[[2-[2-oxo-3-(3-oxo-4H-pyrazino[2,3-b][1,4]oxazin-6-yl)oxazolidin-5-yl]ethylamino]methyl]-6,7-dihydro-5H-cyclopenta[c]pyridine-1-carbonitrile; formic acid]
< 0.0977	–	NCCOc1ncc2c(c1Cl)CC(CNCCC1CN(c3ccc4c(n3)NC(=O)CO4)C(=O)O1)C2 (stereo not drawn) [Example 174, 6-[5-[2-[[3-(2-aminoethoxy)-4-chloro-6,7-dihydro-5H-cyclopenta[c]pyridin-6-yl]methylamino]ethyl]-2-oxo-1,3-oxazolidin-3-yl]-4H-pyrido[3,2-b][1,4]oxazin-3-one]
< 0.0977	–	N#Cc1cc(OCc2cc[nH]n2)cc2c1CC(CNCCC1CN(c3cnc4c(n3)NC(=O)CO4)C(=O)O1)C2 (stereo not drawn) [Example 404, 2-[[2-[2-oxo-3-(3-oxo-4H-pyrazino[2,3-b][1,4]oxazin-6-yl)-1,3-oxazolidin-5-yl]ethylamino]methyl]-6-(1H-pyrazol-3-ylmethoxy)-2,3-dihydro-1H-indene-4-carbonitrile; formic acid]
< 0.0977	–	Cc1nc(Cl)c(F)c2c1CC(CNCCC1CN(c3cnc4c(n3)NC(=O)CO4)C(=O)O1)C2 (stereo not drawn) [Example 398, 6-[5-[2-[(3-chloro-4-fluoro-1-methyl-6,7-dihydro-5H-cyclopenta[c]pyridin-6-yl)methylamino]ethyl]-2-oxo-1,3-oxazolidin-3-yl]-4H-pyrazino[2,3-b][1,4]oxazin-3-one]
< 0.0977	–	O=C1COc2ccc(N3CC(CCNCC4Cc5cccc(F)c5C4)OC3=O)nc2N1 (stereo not drawn) [Example 91, 6-[5-[2-[(4-fluoro-2,3-dihydro-1H-inden-2-yl)methylamino]ethyl]-2-oxo-1,3-oxazolidin-3-yl]-4H-pyrido[3,2-b][1,4]oxazin-3-one]
0.118	–	CNC(=O)COc1cc(F)c2c(c1)CC(CNCCC1CN(c3ccc4c(n3)NC(=O)CS4)C(=O)O1)C2 (stereo not drawn) [Example 74, 2-[[7-fluoro-2-[[2-[2-oxo-3-(3-oxo-4H-pyrido[3,2-b][1,4]thiazin-6-yl)-1,3-oxazolidin-5-yl]ethylamino]methyl]-2,3-dihydro-1H-inden-5-yl]oxy]-N-methylacetamide: formic acid]
0.108	–	N#Cc1cccc2c1CC(CN1CCC3(CN(c4ccc5c(n4)NC(=O)CO5)C(=O)O3)C(CN)C1)C2 (racemic) [Example 249, 2-[[rac-5,6-trans-6-(Aminomethyl)-2-oxo-3-(3-oxo-4H-pyrido[3,2-b][1,4]oxazin-6-yl)-1-oxa-3,8-diazaspiro[4.5]decan-8-yl]methyl]-2,3-dihydro-1H-indene-4-carbonitrile; formic acid]
